Laboratory results from patent US20100204340A1 (priority 2009, published 2010).
≈ marks a conversion by molar mass, not a printed value. Like-named read-outs stand apart in the source and are kept apart here.

How the values were obtained:
[1] = system: B16F1 mouse melanoma cell line; assay: Melanin inhibitory assay; assay type: cell-based; conditions: B16-F1
Sprague Dawley rats = assay: in vivo; conditions: rat, po
Experimental: (§1) Repeated dose 90 day Oral toxicity study for 3HPT in Sprague Dawley rats: The study was conducted to evaluate the possible health hazards likely to arise from repeated exposure to 3HPT over a relatively limited period of time. The study was conducted in six groups consisting of 120 rats with 60 males and 60 females. Group-I, I (R), II, III, IV and IV (R) served as Control, Control Recovery, Low dose (20 mg/kg Bwt), Mid dose (80 mg/kg Bwt), High dose (200 mg/kg Bwt) and High dose Recovery (200 mg/kg Bwt) groups respectively. The test item or vehicle was administered through oral route by gavage to animals daily for 90 days. The animals of Control group and Control recovery group were administered with Corn oil. The vehicle and test item administration to Control Recovery and High dose Recovery group animals respectively was stopped after 90 days of administration and observed for another 28 days to evaluate the effects during recovery period. […] Body weights and food consumptions were recorded at weekly intervals. On completion of 90 days for treatment groups or 118 days for recovery groups respectively, the blood samples were collected from all the animals and subjected to haematological and clinical chemistry evaluation. At termination the animals were humanely sacrificed and subjected to necropsy examination. […]

in vivo = conditions: both sexes, Sprague Dawley, rat, po
Experimental: as §1

tyrosinase = assay: Anti tyrosinase activity; assay type: biochemical
[2] = system: Propionibacterium acnes ATCC 11827; assay: Broth dilution method, inhibitory concentration (IC50, IC100); assay type: cell-based; conditions: for inhibition at 16.6 µg/mL / inhibition at 41.6 µg/mL / inhibition at 83.3 µg/mL / inhibition at 166 µg/mL / inhibition at 332 µg/mL / IC50 / inhibition at 498 µg/mL: Cutibacterium acnes, ATCC11827
Excerpt: Method: Broth dilution method to evaluate the inhibitory concentration (IC).
Materials • 1. Propionibacterium acnes ATCC: 11827 • 2. Physiological saline or Buffered peptone water (BPW). • 3. Reinforced clostridium medium (RCM) Hi-media • 4. Actinomyces broth (AC broth) Hi-media • 5. Anaerobic chamber. • 6. Gassing manifold Nitrogen, mixed gases. • 7. Spectrophotometer (600 nm to 625 nm). • 8. Sterile tubes • 9. Micro Pipette • 10. Sterile micro tips. • 11. (DMSO) dimethylsulphoxide
The strain Propionibacterium acnes (ATCC 11827) was obtained from ATCC. The inhibitory concentration (IC) of the given sample was determined by broth dilution method according to NCCLS guidelines. The IC50 was defined as that concentration of compound that reduced bacterial growth by 50% as determined spectrophotometrically. IC100 was defined as the lowest concentration of compound that inhibited bacterial growth by 100%. Resveratrol and 3-Hydroxypsterostilbene are water insoluble. Therefore samples were dissolved in DMSO and than added to Actinomyces broth to a final concentration of 0-500 mg/L. Twenty-four hour cultures of P.acnes were adjusted to 1×10^8 cfu/ml using McFarland standards and inoculated to Actinomycetes broth containing a specific concentration of compound. Controls containing just DMSO were also included in the test. Cultures were incubated anaerobically at 37° C. and read spectrophotometrically at 600 nm both at 24 h and 48 h incubation periods. IC50 and IC100 values were calculated from these observations.

collagenase = assay: Anti collagenase assay; assay type: biochemical
[3] = system: Bacterial reverse mutation; assay: Bacterial reverse mutation assay (AMES); assay type: cell-based; conditions: presence and absence of metabolic activation, upto 415 μg/ml
Experimental: 3-hydroxypterostilbene is non mutagenic in the Bacterial reverse mutation assay (AMES), both in the presence and absence of metabolic activation, upto a workable concentration of 415 μg/ml.

[4] = Oxygen Radical Absorbance Capacity (ORAC)
[5] = Pharmacokinetics in serum and urine upon oral administration; assay type: in vivo, rats; conditions: rat, in vivo, po, 100 mg/kg
Experimental: The compound in its free and conjugated form is freely absorbed into systemic circulation with the glucoronide detected up to 72 hours.
(FIG. 4). The compound in its free and conjugated form appears in systemic circulation within 15 minutes of administration.

α-glucosidase = assay: Anti α-glucosidase activity; assay type: biochemical
Elastase = assay: Anti Elastase assay; assay type: biochemical
[6] = 16.6 mg/L, 24 h, IC n = n % inhibition of bacterial growth
[7] = 16.6 mg/L, 48 h, IC n = n % inhibition of growth
[8] = 41.6 mg/L, 24 h, IC n = n % inhibition of growth
[9] = 41.6 mg/L, 48 h, IC n = n % inhibition of growth
[10] = 83.3 mg/L, 24 h, IC n = n % inhibition of growth
[11] = 83.3 mg/L, 48 h, IC n = n % inhibition of growth
[12] = 166 mg/L, 24 h, IC n = n % inhibition of growth
[13] = 166 mg/L, 48 h, IC n = n % inhibition of growth
[14] = 332 mg/L, 24 h, IC n = n % inhibition of growth
[15] = 332 mg/L, 48 h, IC n = n % inhibition of growth
[16] = P. acnes ATCC 11827, 24 h, read-out: IC50 24 h
[17] = P. acnes ATCC 11827, 48 h, read-out: IC50 48 h

Structure (SMILES)	OD @ 600 nm 24 h ([2]; 16.6 mg/L, 24 h, dilution 1:2)	OD @ 600 nm 48 h ([2]; 16.6 mg/L, 48 h, dilution 1:2)	OD @ 600 nm 24 h ([2]; 41.6 mg/L, 24 h, dilution 1:2)	OD @ 600 nm 48 h ([2]; 41.6 mg/L, 48 h, dilution 1:2)	Concentration showing 100% inhibition of Propionibacterium acnes ([2]; 24 hours of incubation)	Concentration showing 100% inhibition of Propionibacterium acnes ([2]; 48 hours of incubation)	inhibition at 41.6 µg/mL [2, 8]	inhibition at 41.6 µg/mL [2, 9]	inhibition at 83.3 µg/mL [2, 10]	inhibition at 83.3 µg/mL [2, 11]	inhibition at 166 µg/mL [2, 12]	inhibition at 166 µg/mL [2, 13]	inhibition at 332 µg/mL [2, 14]	inhibition at 332 µg/mL [2, 15]	IC50 [2, 16]	IC50 [2, 17]	IC100 24 h ([2]; P. acnes ATCC 11827, 24 h)	IC100 48 h ([2]; P. acnes ATCC 11827, 48 h)	other results
COc1cc(/C=C/c2ccc(O)c(O)c2)cc(OC)c1 [3-hydroxypterostilbene]	0.526	0.443	0.352	0.338	83.3 mg/mL	83 mg/mL	62%	62%	98%	98%	100%	100%	100%	100%	33.5 µg/mL (≈ 123 µM)	35.8 µg/mL (≈ 131 µM)	83.3 mg/L	83.0 mg/L	IC50 [1]: 0.7 µg/mL (≈ 2.57 µM); Necropsy and histopathology examination of tissues and organs (Sprague Dawley rats): did not reveal any pathological changes; NOAEL at 90 days (in vivo): 200 mg/kg; IC50, anti tyrosinase activity (tyrosinase): IC50 is 2 μg/ml; OD @ 600 nm 24 h ([2]; 83.3 mg/L, 24 h, dilution As such): 0.047; OD @ 600 nm 48 h ([2]; 83.3 mg/L, 48 h, dilution As such): 0.073; inhibition at 16.6 µg/mL [2, 6]: 45%; inhibition at 16.6 µg/mL [2, 7]: 45%; IC50, anti collagenase (collagenase): IC50 is 90 μg/ml; Mutagenicity [3]: non mutagenic; Oxygen Radical Absorbance Capacity (ORAC) [4]: 13334 ± 323 μmol TE/100 g; SC50, DPPH scavenging (DPPH scavenging assay): SC50 is 1.34 μg/ml; Oral bioavailability (free form and glucoronide) [5]: orally bioavailable; Time to appearance in systemic circulation (free and conjugated form) [5]: ≤ 15 min; Urinary excretion form [5]: excreted predominantly as glucoronides in the urine; IC50, anti α-glucosidase (α-glucosidase): IC50 is 203.7 μg/ml; IC50, anti Elastase (Elastase): IC50 is 82 μg/ml
Oc1ccc(/C=C/c2cc(O)cc(O)c2)cc1 [Resveratrol, 3,4′,5-trihydroxy-trans-stilbene]	1.027	0.884	0.777	0.593	332 mg/mL	498 mg/mL	17%	27%	55%	30%	75%	68%	100%	85%	83 µg/mL (≈ 364 µM)	120 µg/mL (≈ 526 µM)	332.0 mg/L	498 mg/L	(IC) Inhibitory concentration [2, 6]: No inhibition; (IC) Inhibitory concentration [2, 7]: No inhibition; OD @ 600 nm 24 h ([2]; 83.3 mg/L, 24 h, dilution 1:2): 0.423; OD @ 600 nm 48 h ([2]; 83.3 mg/L, 48 h, dilution 1:2): 0.573; OD @ 600 nm 24 h ([2]; 166 mg/L, 24 h, dilution 1:2): 0.232; OD @ 600 nm 48 h ([2]; 166 mg/L, 48 h, dilution 1:2): 0.268; OD @ 600 nm 24 h ([2]; 332 mg/L, 24 h, dilution As such): 0.00; OD @ 600 nm 48 h ([2]; 332 mg/L, 48 h, dilution As such): 0.11; OD @ 600 nm 48 h ([2]; 498 mg/L, 48 h, dilution As such): 0.00; inhibition at 498 µg/mL ([2]; 498 mg/L, 24 h, IC n = n % inhibition of growth): 100%; inhibition at 498 µg/mL ([2]; 498 mg/L, 48 h, IC n = n % inhibition of growth): 100%
